Source: BindingDB's records for doi:10.7270/Q2VQ313H (Nmmlsc, 2008)
Structures can show the parent of a compound that is named as a salt.

Each compound was assayed against Estrogen receptor beta (Homo sapiens, UniProt Q92731) (assay: competitive ligand binding to estrogen receptor beta – cell-based, Cos7 ERbeta-GFP, E2-Alexa633, flow cytometry, dose response (AID 1221)). Settings: not given.
Chain of Estrogen receptor beta (Q92731 whole entry): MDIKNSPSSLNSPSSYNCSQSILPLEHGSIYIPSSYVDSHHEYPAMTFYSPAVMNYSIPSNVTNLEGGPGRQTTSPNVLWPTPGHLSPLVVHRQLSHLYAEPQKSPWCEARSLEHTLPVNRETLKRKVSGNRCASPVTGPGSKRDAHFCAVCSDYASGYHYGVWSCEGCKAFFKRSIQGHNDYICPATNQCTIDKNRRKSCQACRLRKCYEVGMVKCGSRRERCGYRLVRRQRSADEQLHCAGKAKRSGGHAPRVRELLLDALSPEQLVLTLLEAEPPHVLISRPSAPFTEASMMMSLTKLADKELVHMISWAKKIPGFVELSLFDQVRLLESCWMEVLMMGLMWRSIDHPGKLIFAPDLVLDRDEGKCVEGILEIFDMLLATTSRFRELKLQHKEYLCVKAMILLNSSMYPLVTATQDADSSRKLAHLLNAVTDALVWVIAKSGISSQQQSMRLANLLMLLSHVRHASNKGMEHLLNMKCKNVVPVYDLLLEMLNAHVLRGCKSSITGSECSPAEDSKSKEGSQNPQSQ

Compound	EC50
O=C(COC(=O)CCC(=O)c1cccs1)NCc1ccco1 [4-keto-4-(2-thienyl)butyric acid [2-(2-furfurylamino)-2-keto-ethyl] ester]	0.00174 µM
O=C(Nc1cc(C(F)(F)F)ccc1N1CCOCC1)C1Cc2ccccc2CN1C(=O)c1ccco1 (centres undefined) [2-(2-furoyl)-N-[2-morpholino-5-(trifluoromethyl)phenyl]-3,4-dihydro-1H-isoquinoline-3-carboxamide]	1.26 µM
CCn1nnc(NC(=O)CSc2ccc(Cl)cc2)n1 [2-(4-chlorophenyl)sulfanyl-N-(2-ethyl-1,2,3,4-tetrazol-5-yl)ethanamide]	> 10 µM
O=C1C=C/C(=C2/Nc3ccc4ccccc4c3C3=C2CCC3)C=C1O [SMR000184811]	> 10 µM
CCc1ccc(-c2nn(-c3ccccc3)cc2CSC(=N)N)cc1 [2-[[3-(4-ethylphenyl)-1-phenyl-pyrazol-4-yl]methyl]isothiourea;hydrochloride]	0.0399 µM
COc1ccccc1N1CCN(C(=O)c2ccc3nc(-c4ccco4)c(-c4ccco4)nc3c2)CC1 [2,3-di-2-furyl-6-{[4-(2-methoxyphenyl)piperazin-1-yl]carbonyl}quinoxaline]	0.00087 µM
CCC(=O)Oc1ccc(C(CC)C(CC)c2ccc(OC(=O)CC)cc2)cc1 (centres undefined) [HEXESTROL DIPROPIONATE]	0.00769 µM
Nc1ncnc2c1ncn2C1CCC(CO)C(O)C1 (centres undefined) [5-(6-aminopurin-9-yl)-2-(hydroxymethyl)-1-cyclohexanol]	0.00214 µM
CC(=O)c1ccc2c(c1)C1C=CCC1C(c1cccc([N+](=O)[O-])c1)N2 (centres undefined) [1-[4-(3-nitrophenyl)-3a,4,5,9b-tetrahydro-3H-cyclopenta[c]quinolin-8-yl]ethanone]	> 10 µM
O=C(O)c1ccc([N+](=O)[O-])c2c1NC(c1ccccc1)C1CC=CC21 (centres undefined) [9-nitro-4-phenyl-3a,4,5,9b-tetrahydro-3H-cyclopenta[c]quinoline-6-carboxylic acid]	0.00065 µM
CC(=O)c1ccc2c(c1)[C@@H]1C=CC[C@@H]1[C@H](c1cc3c(cc1Br)OCO3)N2	0.184 µM
O=C(c1cc2ncc(Br)cn2n1)N1CCN(C(=O)c2ccco2)CC1 [6-bromo-2-{[4-(2-furoyl)-1-piperazinyl]carbonyl}pyrazolo[1,5-a]pyrimidine]	0.00273 µM
CC(=O)Oc1ccc(C2Nc3c(C(=O)O)ccc([N+](=O)[O-])c3C3C=CCC32)cc1 (centres undefined) [4-(4-acetoxyphenyl)-9-nitro-3a,4,5,9b-tetrahydro-3H-cyclopenta[c]quinoline-6-carboxylic acid]	> 10 µM

Same assay, conditions: inactive by the depositor's call

Compound	EC50
C[C@]12CC[C@@H]3c4ccc(O)cc4C(=O)C[C@H]3[C@@H]1CC[C@@H]2O [(8R,9S,13S,14S,17S)-13-methyl-3,17-bis(oxidanyl)-8,9,11,12,14,15,16,17-octahydro-7H-cyclopenta[a]phenanthren-6-one]	0.0381 µM
O=C(O)c1cc(Cl)c2c(c1)[C@@H]1C=CC[C@@H]1[C@H](c1ccc(S(=O)(=O)N3CCOCC3)cc1)N2 [(3aS,4R,9bR)-6-chloranyl-4-(4-morpholin-4-ylsulfonylphenyl)-3a,4,5,9b-tetrahydro-3H-cyclopenta[c]quinoline-8-carboxylic acid]	0.729 µM
COc1ccc(NS(=O)(=O)c2ccc3c(c2)[C@H]2C=CC[C@H]2[C@@H](c2ccc(C(=O)O)cc2)N3)cc1	2.28 µM
Cc1cc(-c2nn3c(-c4ccccc4)nnc3s2)c2ccccc2n1 [2-methyl-4-(3-phenyl[1,2,4]triazolo[3,4-b][1,3,4]thiadiazol-6-yl)quinoline]	4.18 µM
O=C(OCC(=O)N1CCN(C(=O)c2ccco2)CC1)c1cc(-c2ccco2)nc2ccccc12 [2-(2-furanyl)-4-quinolinecarboxylic acid [2-[4-[2-furanyl(oxo)methyl]-1-piperazinyl]-2-oxoethyl] ester]	0.0163 µM
Cc1oc2cc(O)ccc2c(=O)c1Oc1ccccc1 [2-methyl-7-oxidanyl-3-phenoxy-chromen-4-one]	0.438 µM
Cc1cc(C)c2c(c1)[C@@H]1C=CC[C@@H]1[C@H](c1ccc(S(=O)(=O)N3CCOCC3)cc1)N2 [(3aS,4R,9bR)-6,8-dimethyl-4-[4-(morpholin-4-ylsulfonyl)phenyl]-3a,4,5,9b-tetrahydro-3H-cyclopenta[c]quinoline]	0.165 µM
Cc1ccc(C(=O)N/N=C/c2ccc([N+](=O)[O-])s2)cc1 [4-methyl-N-[(5-nitro-2-thiophenyl)methylideneamino]benzamide]	0.0707 µM
Nc1ccc(-c2nc3cc([N+](=O)[O-])ccc3[nH]2)cc1	2.35 µM
COc1ccc(CNC(=O)c2cc(-c3cccs3)on2)cc1 [MLS000087249]	0.0994 µM
CCCCOC(=O)c1c(C)oc2ccc(NS(=O)(=O)c3ccc4c5c(cccc35)C(=O)N4)cc12 [2-methyl-5-[(2-oxo-1H-benzo[cd]indol-6-yl)sulfonylamino]-3-benzofurancarboxylic acid butyl ester]	0.0837 µM
